Literature values as cited in US20090104287A1, “Protocol for AIDS prevention and treatment by nutritional methods” (priority 2002, published 2009).

What was measured:
[1] = system: HIV seropositive patients; conditions: supplementation
HIV-infected patients = conditions: supplementation (usually given as N-acetyl cysteine)

SMILES	replenishing whole blood and T cell glutathione [1]	glutathione in CD4 T cells (HIV-infected patients)
CC(=O)N[C@@H](CS)C(=O)O [N-acetyl cysteine]	often seems effective in replenishing both whole blood and T cell glutathione	–
N[C@@H](CS)C(=O)O [cysteine]	–	replenishes low glutathione in CD4 T cells
